Data reported in publication PMC11048033, “Dual Anti-Inflammatory and Anticancer Activity of Novel 1,5-Diaryl Pyrazole Derivatives: Molecular Modeling, Synthesis, In Vitro Activity, and Dynamics Study” (Biomedicines, 2024).

Target: T1, Human COX-2 (Homo sapiens, UniProt P35354)
T1 construct: purchased Cayman Chemicals 701230
T1 sequence (P35354 18-604): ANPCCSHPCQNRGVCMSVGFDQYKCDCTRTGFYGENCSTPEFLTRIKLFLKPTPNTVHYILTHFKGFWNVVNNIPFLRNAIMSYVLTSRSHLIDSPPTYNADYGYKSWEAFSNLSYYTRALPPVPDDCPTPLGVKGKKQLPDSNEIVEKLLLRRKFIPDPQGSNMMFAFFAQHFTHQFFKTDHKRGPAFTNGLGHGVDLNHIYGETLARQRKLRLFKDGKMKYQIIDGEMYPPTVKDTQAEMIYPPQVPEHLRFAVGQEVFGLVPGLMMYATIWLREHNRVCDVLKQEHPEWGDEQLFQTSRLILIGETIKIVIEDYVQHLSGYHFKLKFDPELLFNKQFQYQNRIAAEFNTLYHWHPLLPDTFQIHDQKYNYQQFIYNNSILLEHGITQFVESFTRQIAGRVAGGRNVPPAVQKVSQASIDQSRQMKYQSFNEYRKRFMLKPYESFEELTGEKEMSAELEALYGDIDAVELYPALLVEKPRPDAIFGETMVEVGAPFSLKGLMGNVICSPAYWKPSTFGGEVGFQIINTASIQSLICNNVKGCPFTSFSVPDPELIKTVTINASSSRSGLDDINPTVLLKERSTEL
Test: In vitro COX-2 enzymatic assay (Cayman COX (human) Inhibitor Screening Assay Kit)
Format: biochemical
Experimental: The ability of the compounds to inhibit COX -2 (IC50 values, µM) was determined by using a “COX (human) Inhibitor Screening Assay Kit” procured from Cayman Chemicals (catalog number 701230). With a slight modification in the method as defined in the reference, the COX-2 inhibition assay was performed. Using the percent conversion of arachidonic acid (AA) to PGH2, the enzyme activity was calculated. By enzyme immunoassay PGF2α, which is produced from PGH2 by reduction with stannous chloride, is calculated. The test compounds’ stock solutions are prepared by dissolving in a minimum amount of DMSO. Human COX-2 (10 µL) in the presence of 10 µL of heme was suspended in 0.1M Tris-HCl buffer (pH 8.0) which contains 2 mM phenol and 5 mM EDTA. This was added to various concentrations of test compounds and, on incubating the solutions at 37 °C for 5 min, 10 µL of AA solution were added. Later, the COX reaction was stopped by adding 1M HCl (50 µL) after 2 min. The intensity of the yellow color which is produced as the product of the enzymatic reaction is determined spectrophotometrically. The percent inhibition was calculated by comparing the compound treated to different control incubations. […] The determinations are done in triplicate and the IC50 (µM) was determined using the concentration–inhibition response curve.
During the initiation of the inflammatory process, the COX enzyme plays a vital role in the progression of inflammatory response. The inflammatory mediators that arise due to the action of COX lead to the chemoattraction of neutrophils, macrophages, eosinophils, etc. […] This was carried out with the help of a COX (human) inhibitor screening assay kit (Item no. 701230) from Cayman chemicals. […] A test substance concentration was considered to be inhibitive when it inhibited human COX-1 or COX-2 by 50%. The compound’s selectivity was measured by its selectivity index values, derived as IC50 (COX-1)/IC50 (COX-2).

Compound	% COX-2 Inhibition (0.781 μg/ml)	% COX-2 Inhibition (1.562 μg/ml)	% COX-2 Inhibition (3.125 μg/ml)	% COX-2 Inhibition (6.25 μg/ml)	% COX-2 Inhibition (12.5 μg/ml)	% COX-2 Inhibition (25 μg/ml)	% COX-2 Inhibition (50 μg/ml)	% COX-2 Inhibition (100 μg/ml)	% COX-2 Inhibition (250 μg/ml)	Selectivity Index
NS(=O)(=O)c1ccc(-n2nc(C(=O)NN=Cc3cccc(Oc4ccccc4)c3)cc2-c2ccc(Cl)cc2)cc1 [Compound T3, 4-(5-(4-chlorophenyl)-3-(2-(3-phenoxybenzylidene) hydrazine-1-carbonyl)-1H-pyrazol-1-yl) benzenesulfonamide]	55.34 ± 1.03%	61.82 ± 1.20%	66.67 ± 0.96%	71.48 ± 0.78%	73.95 ± 0.27%	76.28 ± 0.70%	78.94 ± 0.72%	81.06 ± 0.47%	85.38 ± 0.73%	
Cc1cc(C=NNC(=O)c2cc(-c3ccc(Br)cc3)n(-c3ccc(S(N)(=O)=O)cc3)n2)cc(C)c1OCc1ccccc1 [Compound T5, 4-(3-(2-(4-(benzyloxy)-3,5-dimethylbenzylidene) hydrazine-1-carbonyl)-5-(4-bromophenyl)-1H-pyrazol-1-yl) benzenesulfonamide]	65.66 ± 1.05%	72.1 ± 6.01%	78.03 ± 2.98%	84.28 ± 2.50%	85.04 ± 2.38%	86.71 ± 0.50%	87.64 ± 1.43%	88.64 ± 0.86%	89.35 ± 0.86%	7.16
